The target of test [1] is Kallikrein-7 (Homo sapiens, UniProt P49862). Nature of the test: Fluorescence Intensity-based biochemical primary high throughput dose response assay to identify activators of kallikrein-7 (K7) zymogen.
A short description of test [2]: CellTiter-Glo luminescence survival assay, SW480 colon tumor line, concentration-response curve, half-maximal inhibitory concentration (AID 1117338). In kind it is functional. A general note: ATP-based viability assays read luminescence as a measure of living cells.
The nature of test [3]: RKO cell viability reduction, dose response, CellTiter-Glo luminescence (AID 1117322). The class given is functional.
The nature of test [4]: cytotoxicity toward HCT116 cells – cell-based, CellTiter-Glo luminescence, IC50, dose response (AID 1117332). The note with it: HCT-116. The class given is functional.
Test [5] in a line: SNU-C1 cell viability reduction, dose response, CellTiter-Glo luminescence (AID 1117323). The class given is functional, cell-based.
Test [6] is described as follows: cytotoxicity toward Colo320 cells – cell-based, CellTiter-Glo luminescence, IC50, dose response (AID 1117334). In kind it is functional. The note with it: COLO 320.
Test [7] in a line: cytotoxicity toward HT-29 cells – cell-based, CellTiter-Glo luminescence, IC50, dose response (AID 1117330). In kind it is functional.
A short description of test [8]: Reduced DLD-1 viability, concentration-response, CellTiter-Glo luminescence (AID 1117352). The class given is functional.
The target of test [9] is T1, Oxysterols receptor LXR-beta (Homo sapiens, UniProt P55055).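 Note: Cell-based luminescence dose-response assay of agonist activity at LXR, run as a confirmatory counterscreen to a daf-12 agonist screen; HEK293 cells with Gal4-LXR fusion and GAL4-driven luciferase reporter; agonist potency from rising luciferase signal of a Gal4-LXR reporter.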
T1 sequence (P55055 whole entry): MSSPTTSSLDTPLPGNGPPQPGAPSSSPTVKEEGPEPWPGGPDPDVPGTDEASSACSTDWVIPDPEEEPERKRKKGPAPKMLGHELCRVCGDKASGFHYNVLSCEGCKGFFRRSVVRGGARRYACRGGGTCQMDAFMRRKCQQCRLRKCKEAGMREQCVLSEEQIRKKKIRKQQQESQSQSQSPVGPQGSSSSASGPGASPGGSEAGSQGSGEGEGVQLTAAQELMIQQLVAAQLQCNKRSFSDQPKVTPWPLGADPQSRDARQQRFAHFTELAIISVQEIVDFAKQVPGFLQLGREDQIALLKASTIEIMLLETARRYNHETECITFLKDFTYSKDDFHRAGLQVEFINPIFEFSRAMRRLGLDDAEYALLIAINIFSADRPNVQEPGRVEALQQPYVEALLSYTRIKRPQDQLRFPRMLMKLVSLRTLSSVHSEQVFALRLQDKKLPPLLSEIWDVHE
In kind it is functional, cell-based.

Test [10] is described as follows: cells.
The nature of test [11]: growth inhibition of yeast DHODH-expressing 3D7 parasites – SYBR Green, dry powder samples, dose response (AID 1159570).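 Note: parasite growth measured after 72 hours of compound exposure.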 The class given is functional, cell-based.
The nature of test [12]: toxicity to human HepG2 hepatoma cells – cell-based, plate reader, dry powder samples, cytotoxicity control, dose response (AID 1159569).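 Note: inhibitor potency with signal falling toward the positive control level.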 The class given is functional.
Test [13] is described as follows: P. falciparum Dd2 growth inhibitors, dose response, SYBR Green, cherry-picked samples (AID 1159567). In kind it is functional, cell-based.
Test [14] can be described thus: Dd2 malaria parasite growth inhibition potency – SYBR Green, dry powder samples, dose response (AID 1159566).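 Note: potency for growth inhibition with lower SYBR green DNA signal.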 The class given is functional, cell-based.
Test [15] in a line: growth inhibition of PfATP4-mutant resistant parasites – NITD609-resistant line, SYBR Green, dry powder, dose response (AID 1159571).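 Note: parasites synchronized at ring stage by sorbitol before testing.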 In kind it is functional, cell-based.
Test [16] can be described thus: toxicity to human hepatoma HepG2 cells – cell-based, cherry-picked samples, cytotoxicity control, dose response (AID 1159577). In kind it is functional.
Test [17] has as its target T2, Caspase-3 (Homo sapiens, UniProt P42574).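 Note: Dose-response selectivity test against caspase-3 for candidate inhibitors of sentrin-specific proteases (SENPs).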
T2 sequence (P42574 whole entry): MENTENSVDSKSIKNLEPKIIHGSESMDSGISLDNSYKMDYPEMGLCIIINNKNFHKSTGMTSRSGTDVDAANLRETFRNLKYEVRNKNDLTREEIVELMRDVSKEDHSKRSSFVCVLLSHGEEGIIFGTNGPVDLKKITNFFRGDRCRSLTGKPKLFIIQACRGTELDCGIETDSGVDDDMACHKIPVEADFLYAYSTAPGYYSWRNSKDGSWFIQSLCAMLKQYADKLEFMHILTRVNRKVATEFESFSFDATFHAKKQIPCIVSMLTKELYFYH
In kind it is functional.

The target in test [18] is T3, Sentrin-specific protease 7 (Homo sapiens, UniProt Q9BQF6).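 Note: Luminescence-based dose-response confirmation of ultra-high-throughput screening hits, measuring inhibition of SENP7.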
T3 sequence (Q9BQF6 whole entry): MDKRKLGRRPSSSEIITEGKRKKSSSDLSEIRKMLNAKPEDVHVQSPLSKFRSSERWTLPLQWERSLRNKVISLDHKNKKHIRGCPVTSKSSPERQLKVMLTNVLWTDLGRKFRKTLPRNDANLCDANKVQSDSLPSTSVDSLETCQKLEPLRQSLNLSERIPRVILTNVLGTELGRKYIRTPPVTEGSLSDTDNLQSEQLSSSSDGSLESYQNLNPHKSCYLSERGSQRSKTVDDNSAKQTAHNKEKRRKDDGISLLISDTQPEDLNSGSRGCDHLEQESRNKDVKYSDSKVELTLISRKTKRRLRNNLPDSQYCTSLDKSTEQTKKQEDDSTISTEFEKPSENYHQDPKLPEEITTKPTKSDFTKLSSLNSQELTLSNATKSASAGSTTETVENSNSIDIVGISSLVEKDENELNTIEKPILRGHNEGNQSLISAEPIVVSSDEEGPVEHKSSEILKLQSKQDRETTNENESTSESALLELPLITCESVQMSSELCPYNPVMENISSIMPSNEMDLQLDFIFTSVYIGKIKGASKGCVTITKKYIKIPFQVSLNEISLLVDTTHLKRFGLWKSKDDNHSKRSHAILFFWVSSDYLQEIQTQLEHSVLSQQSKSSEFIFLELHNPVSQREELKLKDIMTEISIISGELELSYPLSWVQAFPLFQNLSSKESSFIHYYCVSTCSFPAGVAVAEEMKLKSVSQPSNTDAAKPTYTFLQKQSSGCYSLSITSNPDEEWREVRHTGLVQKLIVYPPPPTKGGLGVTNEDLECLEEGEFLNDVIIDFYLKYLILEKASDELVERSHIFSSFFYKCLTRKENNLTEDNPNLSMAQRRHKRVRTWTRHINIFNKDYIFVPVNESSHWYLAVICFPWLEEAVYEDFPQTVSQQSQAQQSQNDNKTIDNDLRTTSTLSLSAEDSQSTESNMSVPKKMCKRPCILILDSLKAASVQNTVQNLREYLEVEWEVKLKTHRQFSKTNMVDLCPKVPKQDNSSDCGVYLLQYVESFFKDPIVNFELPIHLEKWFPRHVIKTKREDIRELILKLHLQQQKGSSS
The class given is functional.

The target in test [19] is T4, Sentrin-specific protease 6 (Homo sapiens, UniProt Q9GZR1).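 Note: Luminescence-based dose-response confirmatory assay of SENP6 inhibition, following up an ultra-high-throughput screen.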
T4 sequence (Q9GZR1 whole entry): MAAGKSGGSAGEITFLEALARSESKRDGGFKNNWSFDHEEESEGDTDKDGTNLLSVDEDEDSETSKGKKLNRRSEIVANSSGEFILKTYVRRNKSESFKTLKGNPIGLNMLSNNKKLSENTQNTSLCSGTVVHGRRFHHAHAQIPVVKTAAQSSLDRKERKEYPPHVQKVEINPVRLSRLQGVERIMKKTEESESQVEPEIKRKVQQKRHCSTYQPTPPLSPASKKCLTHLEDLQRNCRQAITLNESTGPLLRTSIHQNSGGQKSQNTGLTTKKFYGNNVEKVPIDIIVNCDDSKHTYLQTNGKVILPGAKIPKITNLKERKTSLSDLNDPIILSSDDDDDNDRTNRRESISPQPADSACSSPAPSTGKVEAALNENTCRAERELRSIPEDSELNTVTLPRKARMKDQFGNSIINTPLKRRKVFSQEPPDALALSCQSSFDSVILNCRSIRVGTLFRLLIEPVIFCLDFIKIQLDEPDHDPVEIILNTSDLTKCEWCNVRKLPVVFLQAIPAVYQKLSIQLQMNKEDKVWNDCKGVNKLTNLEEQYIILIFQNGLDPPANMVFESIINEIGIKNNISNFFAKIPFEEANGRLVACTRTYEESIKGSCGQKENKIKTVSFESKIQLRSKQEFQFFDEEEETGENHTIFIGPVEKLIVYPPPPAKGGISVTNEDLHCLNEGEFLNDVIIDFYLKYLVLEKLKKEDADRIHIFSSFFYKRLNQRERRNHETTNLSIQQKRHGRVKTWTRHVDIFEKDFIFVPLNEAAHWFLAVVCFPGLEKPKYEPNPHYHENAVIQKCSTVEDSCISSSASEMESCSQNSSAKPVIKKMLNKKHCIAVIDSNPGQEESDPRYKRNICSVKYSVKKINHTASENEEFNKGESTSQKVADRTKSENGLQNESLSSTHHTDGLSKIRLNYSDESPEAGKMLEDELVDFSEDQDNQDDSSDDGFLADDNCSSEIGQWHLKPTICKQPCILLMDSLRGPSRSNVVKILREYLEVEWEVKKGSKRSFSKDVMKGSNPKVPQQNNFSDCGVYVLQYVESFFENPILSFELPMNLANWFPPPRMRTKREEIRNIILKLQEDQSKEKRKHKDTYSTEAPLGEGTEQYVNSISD
The class given is functional.

Test [20] addresses T5, Sentrin-specific protease 8 (Homo sapiens, UniProt Q96LD8).
T5 sequence (Q96LD8 whole entry): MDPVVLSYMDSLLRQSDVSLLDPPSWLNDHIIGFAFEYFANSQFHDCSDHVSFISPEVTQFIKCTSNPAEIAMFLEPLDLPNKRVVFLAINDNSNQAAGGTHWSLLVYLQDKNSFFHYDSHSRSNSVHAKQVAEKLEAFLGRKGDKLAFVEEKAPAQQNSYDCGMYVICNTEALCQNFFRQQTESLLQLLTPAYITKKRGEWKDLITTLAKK
The class given is functional.

Test [21] addresses T6, Protein skinhead-1 (Caenorhabditis elegans, UniProt P34707).
T6 sequence (P34707 whole entry): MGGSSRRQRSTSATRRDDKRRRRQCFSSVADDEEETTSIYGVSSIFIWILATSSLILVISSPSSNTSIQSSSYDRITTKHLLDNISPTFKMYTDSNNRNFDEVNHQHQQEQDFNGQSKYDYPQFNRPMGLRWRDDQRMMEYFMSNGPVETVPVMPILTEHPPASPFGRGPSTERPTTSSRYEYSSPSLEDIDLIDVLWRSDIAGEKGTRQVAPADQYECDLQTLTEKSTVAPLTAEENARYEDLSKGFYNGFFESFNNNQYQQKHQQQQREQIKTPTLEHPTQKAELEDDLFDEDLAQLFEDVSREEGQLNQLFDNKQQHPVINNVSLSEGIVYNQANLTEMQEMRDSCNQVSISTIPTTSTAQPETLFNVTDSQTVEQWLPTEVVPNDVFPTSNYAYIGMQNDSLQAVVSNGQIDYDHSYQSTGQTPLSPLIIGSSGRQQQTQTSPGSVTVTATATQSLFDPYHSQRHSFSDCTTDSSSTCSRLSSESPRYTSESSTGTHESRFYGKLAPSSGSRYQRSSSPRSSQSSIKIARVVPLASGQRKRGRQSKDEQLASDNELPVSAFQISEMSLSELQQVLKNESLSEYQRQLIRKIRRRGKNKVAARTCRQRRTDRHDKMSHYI
The class given is functional.

Test [22] addresses Paired box protein Pax-8 (Homo sapiens, UniProt Q06710). Description: PAX8 transcriptional activity inhibition in RMG-I – RMG-I cells, luciferase, cherry-pick, dose response (AID 687027).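 Note: luciferase reporter driven by Pax8 target thyroperoxidase promoter measured by SteadyGlo luminescence.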 In kind it is functional, cell-based.
Test [23] can be described thus: A2780 cell killing – plate reader, dry powder samples, cytotoxicity control, dose response (AID 743046). In kind it is functional, cell-based.

The source made the active and inactive calls. A value given as a limit tells only on which side of the number the result lay.

Sequence of Kallikrein-7 (P49862 whole entry): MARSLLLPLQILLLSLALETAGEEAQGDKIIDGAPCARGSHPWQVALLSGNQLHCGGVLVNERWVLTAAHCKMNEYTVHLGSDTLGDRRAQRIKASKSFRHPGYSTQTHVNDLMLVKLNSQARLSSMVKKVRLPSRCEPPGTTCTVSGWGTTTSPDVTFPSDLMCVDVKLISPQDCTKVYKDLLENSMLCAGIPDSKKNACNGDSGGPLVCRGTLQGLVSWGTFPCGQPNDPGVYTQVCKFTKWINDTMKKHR
Sequence of Paired box protein Pax-8 (Q06710 whole entry): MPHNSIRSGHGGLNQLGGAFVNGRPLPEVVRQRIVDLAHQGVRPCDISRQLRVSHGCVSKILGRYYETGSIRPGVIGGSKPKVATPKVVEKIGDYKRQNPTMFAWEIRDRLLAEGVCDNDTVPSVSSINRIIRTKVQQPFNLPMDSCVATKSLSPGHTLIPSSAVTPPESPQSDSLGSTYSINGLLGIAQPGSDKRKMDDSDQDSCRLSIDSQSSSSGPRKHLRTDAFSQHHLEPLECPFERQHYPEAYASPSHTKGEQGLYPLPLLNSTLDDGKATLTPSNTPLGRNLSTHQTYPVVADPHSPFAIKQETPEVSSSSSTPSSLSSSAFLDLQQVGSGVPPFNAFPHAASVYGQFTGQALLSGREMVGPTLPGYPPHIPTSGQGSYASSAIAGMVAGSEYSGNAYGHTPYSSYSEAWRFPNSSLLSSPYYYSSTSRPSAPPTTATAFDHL

Consider `CCOC(=O)CC(=O)CSc1nc(C)cc(-c2cccnc2)c1C#N`, for which the EC50 (as a rule, the midpoint of the concentration-response curve) in [1] is 8.07 µM (active).
Regarding `CNS(=O)(=O)Cc1ccc2[nH]cc(CCN(C)C)c2c1`, the IC50 (in general, the point on the concentration scale where inhibition reaches its midpoint) in test [2] is > 6.67 µM (inactive); in [3], > 20 µM (inactive); in test [4], > 20 µM (inactive); in test [5] it was > 20 µM (inactive); in [6], > 20 µM (inactive); in test [7], > 20 µM (inactive). Besides, the IC50 in test [8] was > 20 µM (inactive).
With `COc1cccc(-c2nc(-c3ccccc3)no2)c1`, the EC50 in test [9] and in [10] was > 67.6 µM (inactive) throughout.
With `CCOc1ccc(-c2cc(C(=O)N3CCN(C)CC3)c3ccccc3n2)cc1`, in test [1], the EC50 was > 69.5 µM (inactive).
For the compound `CC1=NN(C(N)=S)C(=O)C1N=Nc1ccc(C)cc1C` (stereo not drawn), the EC50 in [9] and in test [10] was > 67.5 µM (inactive) throughout.
Turning to `COc1cccc(NC(=O)N(C)C[C@@H]2Oc3cc(C#Cc4ccccc4)ccc3S(=O)(=O)N([C@H](C)CO)C[C@@H]2C)c1`, the concentration at half-maximal activity (AC50) (usually the concentration giving half of the maximal activity seen) in [11] was 0.975 µM (active); in test [12], > 100 µM (inactive); in test [13], 1.19 µM (active); in test [14] it was 0.539 µM (active); in [15], 0.74 µM (active).
Consider `CC(C)CC#Cc1ccc([C@@H]2[C@@H](CO)N3CCCCN(S(=O)(=O)Cc4ccccc4)C[C@@H]23)cc1`, for which the AC50 in [13] was 5.76 µM (active); in test [16] it was > 39 µM (inactive).
For the compound `Cc1ccccc1-c1nc(-c2ccc(Br)o2)no1`, the IC50 in test [17] is 17 µM (active); in [18] it was 4.23 µM (active); in test [19], 23.5 µM (active); in test [20], 35.8 µM (active); in test [21], 39.7 µM (active). Also, the EC50 in test [9] and in test [10] was > 67.6 µM (inactive) in each case.
As to `COc1ccc2c3c([nH]c2c1)[C@H](CO)N(C(=O)C1CCCC1)CC31CCN(Cc2cccc(F)c2)CC1`, the AC50 in [13] was 3.49 µM (active); in test [16] it was 9.75 µM (active).
Take `C[C@H](CO)N1C[C@H](C)[C@@H](CN(C)Cc2ccc(Cl)c(Cl)c2)OCCCC[C@H](C)Oc2ccc(NS(=O)(=O)c3ccccc3)cc2C1=O`: the values for the AC50 in [22] and in test [23] were 17.5 µM (active) and < 0.26 µM (active), respectively.
With `COc1ccc2c3c(n(C)c2c1)[C@H](CO)NCC31CCN(Cc2ccc(-c3ccccn3)cc2)CC1`, the AC50 was 0.265 µM (active) in test [11]; 20 µM (active) in [12]; 0.322 µM (active) in [13]; 0.135 µM (active) in [14]; 20.3 µM (active) in test [16]; 0.222 µM (active) in [15].
In the case of `Cc1cc(C)n2cc(CSCc3ccccc3)nc2n1`, the EC50 in test [1] was 49.5 µM (inactive).
